Our source for the TGI and GI50 values is PubChem BioAssay (NCI).

Assay in all cases: NCI anticancer screen, dose series, 48 h
In test [1] the test system is HCT-15 colon.
Test [2] relates to NCI/ADR-RES ovarian.
The test system of test [3] is LOX IMVI melanoma.
Test [4] has as its system TK-10 renal.
The subject of test [5] is BT-549 breast.
In test [6] the test system is OVCAR-8 ovarian.
Test [7] relates to OVCAR-3 ovarian.
Test [8] has as its system CAKI-1 renal.
The test system of test [9] is U251 CNS.
The subject of test [10] is A498 renal.

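Cultured in 96-well plates, cells were exposed to test compound for 48 hours across five concentrations. Abbreviation: GI50, concentration required for 50% inhibition of growth. TGI: concentration producing complete growth inhibition.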 A value given as a limit tells only on which side of the number the result lay.

As to `COC(=O)c1ccc(OCCn2nnc(C(=O)NN)c2C(=O)NN)cc1`, the TGI in test [1], in [2], in test [3], in [4], in [5] and in test [6] was above 100 µM in each case. Moreover, the TGI in test [7], in [8] and in test [9] was above 100 µM throughout.

On to `Nc1cc(OCC2CCCCC2)nc(N)n1`, for which the TGI in test [1], in test [2], in test [3], in test [4], in test [5] and in test [6] was above 100 µM each time. Further, the TGI in test [7], in [8] and in test [9] was above 100 µM in each case.

Consider `COc1cc(C[C@@]2(C)[C@@H]3CCC[C@H](CO)[C@@]3(C)CC[C@@H]2C)c(Cl)c(OC)c1`, for which the TGI in [1] was determined as 34.1 µM; in [2] it was 31.3 µM; in [3] it was 32.9 µM; in [4], 35.1 µM; in [5] it was 33.8 µM; in [6], 31.7 µM. Also, the results for the TGI in test [7], in [8] and in test [9] were 28.8 µM, 31.1 µM and 29 µM, respectively.

For `CC1OC(NCCNCCNC2OC(C)C(O)C(O)C2O)C(O)C(O)C1O` (configuration not stated), the TGI in test [1], in test [2], in test [3], in [4], in test [5] and in test [6] was above 100 µM throughout. The TGI in test [7], in test [10] and in [9] was above 100 µM in each case.

As for `O=C1C=C(NCCc2ccc(O)c([N+](=O)[O-])c2)C(=O)c2[nH]cnc21`, the TGI in [1] was above 100 µM; in [2] it was above 100 µM; in [3] it was above 100 µM; in test [4] it was above 100 µM; in test [6] it was 68.7 µM; in [7] it was 46.1 µM. In addition, the TGI in test [10] and in test [9] was above 100 µM throughout.

As to `Nc1nnc(N)n1N`, the TGI in test [1], in test [3], in test [4], in [8] and in test [9] was above 100 µM throughout.

`CS(=O)(=O)OCCN(CCOS(C)(=O)=O)c1ccc(C=Nc2ccc(-c3csc(Cc4ccccc4)n3)cc2)c(Cl)c1`: the TGI in [1] is above 87.8 µM; in test [2], above 70 µM; in [3], above 57.3 µM; in [4], above 100 µM; in test [6], above 66 µM; in [7], above 63.7 µM. Besides, the TGI is 13.5 µM in test [8], 0.321 µM in [10] and above 83.3 µM in test [9].

With `COc1cc(/C=C/c2ccc(OC)c(OC)c2)oc(=O)c1`, the TGI in test [1] is above 250 µM; in test [2] it was above 250 µM; in test [3], above 250 µM; in test [6] it was above 11.6 µM; in test [7], above 250 µM; in test [8] it was above 114 µM. In addition, the TGI in test [10] and in [9] was above 250 µM throughout.

Consider `O=C1c2c(c3c4cc(F)ccc4oc3c3[nH]c4ccccc4c23)C(=O)N1O`, for which the GI50 in test [1] is 1.81 µM; in test [2], 2.9 µM; in test [3], 0.5 µM; in test [4] it was 12 µM; in test [6] it was 1.82 µM; in test [7] it was 2.53 µM. In addition, the GI50 in test [8] was 2.09 µM; in test [10] it was 1.23 µM; in test [9] it was 0.904 µM. Further, the TGI in test [1] is above 100 µM; in test [2], above 100 µM; in test [3], 2.15 µM; in test [4] it was 53.4 µM; in [6], above 100 µM; in [7], 7.96 µM. Besides, the TGI came out at 9.35 µM in test [8], 5.2 µM in test [10] and 13.4 µM in [9].

For `COc1ccc(C2CC(c3sc(Nc4ccc(C)cc4)nc3C)=NN2)cc1` (configuration not stated), the TGI in test [1] came out at 39.1 µM; in [2], 32.4 µM; in [3] it was 34.4 µM; in test [6] it was 35.9 µM; in test [7] it was 30.1 µM; in test [8], 41.2 µM. For the same compound, the TGI turned out to be 30.7 µM in [10] and 28.4 µM in test [9].

On to `CC(=O)OCC1OC(n2c(C)c(C)cc(C#N)c2=S)C(OC(C)=O)C(OC(C)=O)C1OC(C)=O` (configuration not stated), for which the TGI in [1], in [3], in [4], in [5], in test [6] and in [7] was above 100 µM each time. Moreover, the TGI in test [8], in test [10] and in test [9] was above 100 µM in each case.

Consider `COc1ccc(-c2cc(-c3ccc(C)cc3)n(C3OC(COC(C)=O)C(OC(C)=O)C(OC(C)=O)C3OC(C)=O)c(=S)c2C#N)cc1` (configuration not stated), for which the TGI in [1], in test [2], in test [3], in test [4], in test [5] and in test [6] was above 100 µM in each case. The TGI in test [7], in test [8] and in test [9] was above 100 µM each time.

Take `O=[N+]([O-])c1ccc(C[P+]2(c3ccccc3)CCCCC2)cc1` (tested in a mixture with another compound): the TGI in [1], in [3], in [4], in [6], in [7] and in test [8] was above 100 µM throughout. In addition, the TGI in [10] and in test [9] was above 100 µM each time.

Regarding `CC(O)C(CO)NC(=O)C1CSSCC(NC(=O)C(N)Cc2ccccc2)C(=O)NC(Cc2ccccc2)C(=O)NC(Cc2c[nH]c3ccccc23)C(=O)NC(CCCCN)C(=O)NC(C(C)O)C(=O)N1` (configuration not stated), the TGI in test [1], in test [2], in test [3], in test [4], in test [6] and in [7] was above 100 µM throughout. For the same compound, the TGI in test [8], in test [10] and in test [9] was above 100 µM throughout.
